These results are taken from PMC12184311 (2025).

For assay [1], the system named is mm3WJ (mismatched 3WJ) (DNA, junction) CGGAACGGCACTCG/CGAGTGCAGCGTGG/CCACGCACGTTCCG
The assay can be described thus: PAGE.

For assay [2], the system named is two-base-bulged 3WJ (DNA, junction) CGGAACGAAGCACTCG/CGAGTGCAGCGTGG/CCACGCTCGTTCCG
Briefly: PAGE.

The test system of assay [3] is one-base-bulged 3WJ (DNA, junction) CGGAACGAGCACTCG/CGAGTGCAGCGTGG/CCACGCTCGTTCCG
Briefly: PAGE.

Assay [4] has as its system 4WJ-22 (DNA, junction) GCCTAGCATGATACTGCTACCG/CGGTAGCAGTACCGTTGGTGGC/GCCACCAACGGCGTCAACTGCC/GGCAGTTGACGTCATGCTAGGC
Briefly: MST competition, unlabelled DNA titrated. Conditions: Na+ 50 mM (NaOAc); IC50 of competitor DNA, not of compound; 20 nM FAM-4WJ-22, 80 nM Pt-BIMA; 10 mM HEPES, 0.1% Tween-20.

Assay [5] deals with FAM-labelled DS-21 (dsDNA) (DNA, duplex) CCTTCACGCGAACGTAATCCT/AGGATTACGTTCGCGTGAAGG
Briefly: microscale thermophoresis. As to conditions: Na+ 50 mM (NaOAc); 10 mM HEPES, 0.1% Tween, room temperature; tested 1.5 nM to 50 µM Pt-BIMA. On the technique in general: In MST a laser heats a spot of the sample, and binding alters the fluorescence response.

For assay [6], the system named is FAM-labelled 4WJ-22 (FAM-4WJ) (DNA, junction) GCCTAGCATGATACTGCTACCG/CGGTAGCAGTACCGTTGGTGGC/GCCACCAACGGCGTCAACTGCC/GGCAGTTGACGTCATGCTAGGC
Briefly: microscale thermophoresis. Conditions: Na+ 50 mM (NaOAc); 10 mM HEPES, 0.1% Tween, room temperature; 20 nM DNA.

Assay [7] relates to DS-21 (dsDNA) (DNA, duplex) CCTTCACGCGAACGTAATCCT/AGGATTACGTTCGCGTGAAGG
The assay can be described thus: UV melting, 260 nm. As to conditions: Na+ (10 mM Na cacodylate, 50 mM NaOAc); 1 equivalent Pt-BIMA.

For assay [8] the test system is unchanged. The assay can be described thus: MST competition, unlabelled DNA titrated. As to conditions: Na+ 50 mM (NaOAc); IC50 of competitor DNA, not of compound; 20 nM FAM-4WJ-22, 80 nM Pt-BIMA; 10 mM HEPES, 0.1% Tween-20.
The test system of assay [9] is 4WJ-FAM1 (DNA, junction) GCCTAGCATGATACTGCTACCG/CGGTAGCAGTACCGTTGGTGGC/GCCACCAACGGCGTCAACTGCC/GGCAGTTGACGTCATGCTAGGC
Briefly: FRET, FAM emission. As to conditions: Na+ 50 mM (NaOAc); 10 mM HEPES; 5 µM DNA, 1 equivalent Pt-BIMA; FAM emission up about 3.5-fold.

Assay [10] has as its system Y fork (DNA, junction) CGCACGTACGGAACGGCACTCGCTTGCTCG/CGAGCAAGCGAGTGCAGCGTGGATACATGC
The assay can be described thus: UV melting, 260 nm. As to conditions: Na+ (10 mM Na cacodylate, 50 mM NaOAc); 1 equivalent Pt-BIMA.

Assay [11] relates to 4WJ-22 (DNA, junction) GCCTAGCATGATACTGCTACCG/CGGTAGCAGTACCGTTGGTGGC/GCCACCAACGGCGTCAACTGCC/GGCAGTTGACGTCATGCTAGGC
The assay can be described thus: PAGE gel shift. Conditions: Mg2+ 10 mM (MgCl2); band widens, no distinct shift. A general note: A gel shift assay detects complexes by their altered migration in electrophoresis.

The test system is the same in assay [12]. Briefly: UV melting, 260 nm. Conditions: Na+ (10 mM Na cacodylate, 50 mM NaOAc); 1 equivalent Pt-BIMA, 0.05% DMSO; biphasic.
Assay [13] relates to 3WJ (DNA, junction) CGGAACGGCACTCG/CGAGTGCAGCGTGG/CCACGCTCGTTCCG
Briefly: UV melting, 260 nm. As to conditions: Na+ (10 mM Na cacodylate, 50 mM NaOAc); 1 equivalent Pt-BIMA.

Assay [14] concerns FAM-labelled 3WJ-18 (DNA, junction) GTGGCGAGAGCGACGATC/GATCGTCGCAGAGTTGAC/GTCAACTCTTCTCGCCAC
The assay can be described thus: microscale thermophoresis. Conditions: Na+ 50 mM (NaOAc); 10 mM HEPES, 0.1% Tween, room temperature; error exceeds value.

For `[Pd+2].[Pd+2].c1ccc2c(c1)ncn2Cc1c2ccccc2c(Cn2cnc3ccccc32)c2ccccc12.c1ccc2c(c1)ncn2Cc1c2ccccc2c(Cn2cnc3ccccc32)c2ccccc12.c1ccc2c(c1)ncn2Cc1c2ccccc2c(Cn2cnc3ccccc32)c2ccccc12.c1ccc2c(c1)ncn2Cc1c2ccccc2c(Cn2cnc3ccccc32)c2ccccc12`, the binding result in assay [1], in [2] and in [3] was “yes” throughout.

Take `[Pt+2].[Pt+2].c1ccc2c(c1)ncn2Cc1c2ccccc2c(Cn2cnc3ccccc32)c2ccccc12.c1ccc2c(c1)ncn2Cc1c2ccccc2c(Cn2cnc3ccccc32)c2ccccc12.c1ccc2c(c1)ncn2Cc1c2ccccc2c(Cn2cnc3ccccc32)c2ccccc12.c1ccc2c(c1)ncn2Cc1c2ccccc2c(Cn2cnc3ccccc32)c2ccccc12`: the IC50 (usually the concentration that inhibits the measured activity by half) in assay [4] is reported as 2.88 ± 0.42 x 10^-8 M; in assay [8], above 25 µM. Besides, the binding entry in assay [5] is listed as “no”; in assay [1] it was “yes”; in assay [9], “yes”; in assay [2] it was “yes”; in [11], “weak”; in [3], “yes”. Besides, the Kd is 8.27 ± 1.11 x 10^-8 M in [6] and 1.90 ± 2.27 × 10^-6 M in assay [14]. In addition, the ΔTm (commonly the shift of the melting midpoint relative to a reference) turned out to be 0.7 ± 0.9 °C in assay [7], 5.4 ± 1.1 °C in assay [10], 11.6 ± 0.6 °C in [12] and 21.1 ± 0.1 °C in assay [13].
